The compounds below were run against T1, hQ23 (HEK-293 cell line stably transfected with one of the members of the KCNQ family) (Homo sapiens, UniProt O43525+O43526) (assay: Thallium flux assay for KCNQ channel blockers (FLIPR, BTC dye)). Conditions: hQ23 cells, thallium flux.
T1 construct: expressed in transfected cells; host or cells: HEK-293, stably transfected
Type: cell-based
In short: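 HEK-293 cells stably expressing a KCNQ member, loaded with BTC-AM (2 μM) in chloride-free buffer, pH 7.3; compounds added at 1% DMSO, then Tl2SO4 stimulus on FLIPR (488/540 nm, 60 s). Minimal active concentration set at ≥4 SD above negative control; IC50 from 10-point 1:3 series, single-site logistic fit versus the positive-control blocker.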

T1 sequence (O43526 whole entry): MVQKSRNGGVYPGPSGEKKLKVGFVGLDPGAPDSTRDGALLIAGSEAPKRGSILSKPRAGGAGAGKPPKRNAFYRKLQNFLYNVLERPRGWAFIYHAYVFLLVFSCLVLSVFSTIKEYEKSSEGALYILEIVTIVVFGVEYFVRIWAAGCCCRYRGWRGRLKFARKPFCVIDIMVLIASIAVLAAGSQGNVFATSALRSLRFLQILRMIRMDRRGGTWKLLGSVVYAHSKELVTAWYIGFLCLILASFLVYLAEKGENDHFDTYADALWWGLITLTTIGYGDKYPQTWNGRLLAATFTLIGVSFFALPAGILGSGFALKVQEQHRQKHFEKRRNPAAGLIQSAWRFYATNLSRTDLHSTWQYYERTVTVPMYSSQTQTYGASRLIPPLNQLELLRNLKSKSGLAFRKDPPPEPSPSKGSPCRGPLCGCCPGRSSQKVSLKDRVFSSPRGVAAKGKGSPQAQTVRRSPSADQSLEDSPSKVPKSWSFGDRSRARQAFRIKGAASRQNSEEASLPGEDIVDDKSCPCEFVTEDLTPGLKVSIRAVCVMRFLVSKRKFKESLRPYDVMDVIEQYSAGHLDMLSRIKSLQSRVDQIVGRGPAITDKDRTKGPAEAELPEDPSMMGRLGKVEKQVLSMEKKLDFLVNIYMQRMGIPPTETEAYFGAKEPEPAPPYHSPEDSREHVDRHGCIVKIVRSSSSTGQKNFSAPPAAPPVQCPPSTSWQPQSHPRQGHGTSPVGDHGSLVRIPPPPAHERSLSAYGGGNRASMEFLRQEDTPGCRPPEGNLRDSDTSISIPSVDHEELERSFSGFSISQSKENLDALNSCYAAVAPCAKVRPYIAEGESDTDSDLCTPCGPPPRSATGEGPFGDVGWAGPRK
T1 sequence (O43525 whole entry): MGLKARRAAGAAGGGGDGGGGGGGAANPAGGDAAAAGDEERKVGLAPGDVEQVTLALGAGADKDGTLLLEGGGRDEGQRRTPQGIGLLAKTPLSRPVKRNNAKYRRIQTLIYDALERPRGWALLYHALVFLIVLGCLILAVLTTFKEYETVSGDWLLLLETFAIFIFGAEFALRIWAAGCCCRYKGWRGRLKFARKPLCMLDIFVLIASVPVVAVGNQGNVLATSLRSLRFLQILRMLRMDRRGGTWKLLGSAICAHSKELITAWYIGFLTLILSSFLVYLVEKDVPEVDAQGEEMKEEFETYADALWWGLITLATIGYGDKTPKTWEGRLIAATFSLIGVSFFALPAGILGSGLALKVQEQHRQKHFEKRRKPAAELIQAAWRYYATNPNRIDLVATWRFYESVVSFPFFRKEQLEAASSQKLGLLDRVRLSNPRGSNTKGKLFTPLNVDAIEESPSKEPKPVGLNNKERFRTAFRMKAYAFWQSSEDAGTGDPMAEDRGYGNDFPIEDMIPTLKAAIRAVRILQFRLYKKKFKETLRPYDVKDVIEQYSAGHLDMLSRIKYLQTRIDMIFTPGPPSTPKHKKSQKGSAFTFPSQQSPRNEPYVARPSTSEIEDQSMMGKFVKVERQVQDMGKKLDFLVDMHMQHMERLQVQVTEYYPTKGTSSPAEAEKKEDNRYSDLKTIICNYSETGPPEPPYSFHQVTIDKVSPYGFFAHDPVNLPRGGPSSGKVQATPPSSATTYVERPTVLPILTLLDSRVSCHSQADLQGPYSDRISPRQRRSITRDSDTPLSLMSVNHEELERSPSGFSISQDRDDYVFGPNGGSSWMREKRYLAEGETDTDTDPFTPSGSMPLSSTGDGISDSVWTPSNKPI

Structure (SMILES) | EC50 [nM]
CN(C)CCNc1ncc(C(=O)NCc2cc(F)cc(C(F)(F)F)c2)c(C2(c3ccc(Cl)cc3)CCCC2)n1 [Example 195, 5-pyrimidinecarboxamide, 4-[1-(4-chlorophenyl)cyclopentyl]-2-[[2-(dimethylamino)ethyl]amino]-N-[[3-fluoro-5-(trifluoromethyl)phenyl]methyl]-] | 634
CCC(C)Nc1ncc(C(=O)NC(C)c2ccc(F)cc2)c(C2(c3ccc(Cl)cc3)CCCC2)n1 (stereo not drawn) [Example 200, 5-pyrimidinecarboxamide, 4-[1-(4-chlorophenyl)cyclopentyl]-N-[1-(4-fluorophenyl)ethyl]-2-[(1-methylpropyl)amino]-] | 911
CC(NC(=O)c1cnc(NC2CCCC2)nc1C1(c2ccc(Cl)cc2)CCCC1)c1ccc(F)cc1 (stereo not drawn) [Example 201, 5-pyrimidinecarboxamide, 4-[1-(4-chlorophenyl)cyclopentyl]-2-(cyclopentylamino)-N-[1-(4-fluorophenyl)ethyl]-] | 592
CN1CCN(c2ncc(C(=O)NCc3ccc(C(F)(F)F)cc3)c(C3(c4ccc(Cl)cc4)CCCC3)n2)CC1 [Example 202, 5-pyrimidinecarboxamide, 4-[1-(4-chlorophenyl)cyclopentyl]-2-(4-methyl-1-piperazinyl)-N-[[4-(trifluoromethyl)phenyl]methyl]-] | 879
CN1CCC(N(C)c2ncc(C(=O)NCc3ccc(C(F)(F)F)cc3)c(C3(c4ccc(Cl)cc4)CCCC3)n2)CC1 [Example 204, 5-pyrimidinecarboxamide, 4-[1-(4-chlorophenyl)cyclopentyl]-2-[methyl(1-methyl-4-piperidinyl)amino]-N-[[4-(trifluoromethyl)phenyl]methyl]-] | 400

These reach a lower EC50. Values come first.

EC50 [nM] | Structure (SMILES)
91 | O=C(NCc1cc(F)cc(C(F)(F)F)c1)c1cnc(NC2CCCC2)nc1C1(c2ccc(Cl)cc2)CCCC1 [Example 196, 5-pyrimidinecarboxamide, 4-[1-(4-chlorophenyl)cyclopentyl]-2-(cyclopentylamino)-N-[[3-fluoro-5-(trifluoromethyl)phenyl]methyl]-]
233 | CC1CCC(Nc2ncc(C(=O)NC(C)c3ccc(F)cc3)c(C3(c4ccc(Cl)cc4)CCCC3)n2)CC1 (stereo not drawn) [Example 197, 5-pyrimidinecarboxamide, 4-[1-(4-chlorophenyl)cyclopentyl]-N-[1-(4-fluorophenyl)ethyl]-2-[(4-methylcyclohexyl)amino]-]
124 | CC1CCCN(c2ncc(C(=O)NC(C)c3ccc(F)cc3)c(C3(c4ccc(Cl)cc4)CCCC3)n2)C1 (stereo not drawn) [Example 198, 5-pyrimidinecarboxamide, 4-[1-(4-chlorophenyl)cyclopentyl]-N-[1-(4-fluorophenyl)ethyl]-2-(3-methyl-1-piperidinyl)-]
61 | CC1CCN(c2ncc(C(=O)NC(C)c3ccc(F)cc3)c(C3(c4ccc(Cl)cc4)CCCC3)n2)CC1 (stereo not drawn) [Example 199, 5-pyrimidinecarboxamide, 4-[1-(4-chlorophenyl)cyclopentyl]-N-[1-(4-fluorophenyl)ethyl]-2-(4-methyl-1-piperidinyl)-]
32 | CC1CCN(c2ncc(C(=O)NCc3ccc(C(F)(F)F)cc3)c(C3(c4ccc(Cl)cc4)CCCC3)n2)CC1 [Example 203, 5-pyrimidinecarboxamide, 4-[1-(4-chlorophenyl)cyclopentyl]-2-(4-methyl-1-piperidinyl)-N-[[4-(trifluoromethyl)phenyl]methyl]-]
116 | CC1CCCN(c2ncc(C(=O)N(C)Cc3ccccc3)c(C3(c4ccc(F)cc4)CCCC3)n2)C1 (stereo not drawn) [Example 205, 5-pyrimidinecarboxamide, 4-[1-(4-fluorophenyl)cyclopentyl]-N-methyl-2-(3-methyl-1-piperidinyl)-N-(phenylmethyl)-]
261 | CC1CCN(c2ncc(C(=O)N(C)Cc3ccccc3)c(C3(c4ccc(F)cc4)CCCC3)n2)CC1 [Example 206, 5-pyrimidinecarboxamide, 4-[1-(4-fluorophenyl)cyclopentyl]-N-methyl-2-(4-methyl-1-piperidinyl)-N-(phenylmethyl)-]
